Columns and labels:
[1] = molecular target: T1, T7 RNA polymerase (Escherichia phage T7, UniProt P00573); settings: T7 transcription
Experimental: (§1) The reaction composition of T7 transcription may be the same as described in Ohtsuki et al., 2001. Details are as follows: 40 mM Tris-HCl (pH 8.0), 5 mM DTT, 24 mM MgCl2, 2 mM spermidine, 0.01% TritonX-100, 10 mM GMP, 1 mM NTPs, 0-0.25 mM 5IyTP, 0.2 μl/μl template DNA, and 2.5 U/μl T7 RNA polymerase (TaKaRa). After enzymatic reaction at 37° C. for 6 hours, each reaction product was purified by electrophoresis on an 8% polyacrylamide-7M urea gel.
When T7 transcription reaction is performed in the presence of [α-^32P]ATP or [α-^32P]GTP, a nucleoside 3′-phosphate (Np) 5′-terminal to A or G is labeled with ^32P. Each gel-purified RNA was completely digested into Np by RNase T2 (Sigma). If 5Iy is introduced at residue 84 or 92, the nucleoside 3′-phosphate of 5Iy (5IyTp) is labeled with ^32P via [α-^32P]GTP, while if 5Iy is introduced at residue 87, 5IyTp is labeled via [α-^32P]ATP (FIG. 5, FIG. 6-b). For base composition analysis of 5Iy-containing RNAs, each of the completely digested products was separated by 2D-TLC and determined for each nucleotide content.
More specifically, to completely digest RNA, 0.75 μl RNase T2 solution (5 units/μl; 100 mM NaOAc pH 4.5, 10% glycerol) was added to 4.25 μl aqueous solution containing the labeled RNA and a 0.25 OD E. coli-derived tRNA mixture (Sigma), followed by overnight enzymatic reaction at 37° C. A part of the reaction solution was spotted onto a 10 cm×10 cm TLC plate (Funacell SF; Funakoshi Co., Ltd., Japan) and developed in two dimensions. Developing solutions for the first and second dimensions are isobutyric acid/ammonia/water (66:1:33 by volume) and 2-propanol/hydrochloric acid/water (70:15:15 by volume), respectively. The developed spots were detected and quantified using a bioimaging analyzer (BAS2500, Fuji Photo Film Co., Ltd., Japan).
Each value was calculated from the following equation. The theoretical numbers of nucleotides are in parentheses.

[2] = molecular target: T1, T7 RNA polymerase; settings: 0.25 mM triphosphate; product of 100 nucleotides
Experimental: as §1

[3] = molecular target: T1, T7 RNA polymerase; settings: for incorporation into RNA opposite s in the template: 1 mM, in competition with natural NTPs; for efficiency of transcription reaction: full-length 17-mer RNA, transcription using natural base pairing set to 100%; for misincorporation opposite natural nucleotides in the template: s-free control template
Experimental: The T7 transcription reaction was performed on 20 μl scale. The composition of T7 transcription is as follows: 40 mM Tris-HCl (pH 8.0), 5 mM DTT, 8 mM MgCl2, 2 mM spermidine, 0.01% TritonX-100, 10 mM GMP, 1 mM NTPs (N=A, G, C, U, Bio-yTP, Bio^2-yTP), 2 μCi [α-^32P]ATP, 0.5 μM double-stranded DNA, and 2.5 U/μl T7 RNA polymerase (TaKaRa) [Ohtsuki et al., 2001]. After enzymatic reaction at 37° C. for 3 hours, each reaction solution was supplemented with an equal volume of a 10M urea-containing TPE solution and warmed at 75° C. for 3 minutes to stop the reaction. Aliquot parts of the reaction solutions were then electrophoresed on a 20% polyacrylamide-7M urea gel and the [α-^32P]ATP-labeled reaction products were analyzed with a bioimaging analyzer (BAS2500, Fuji Photo Film Co., Ltd., Japan).

[4] = molecular target: T2, Raf-1 RBD (GST-RBD) (Homo sapiens, UniProt P04049 P04049:51-131); assay: EMSA; no shift even at increased GST-RBD; settings: tags: GST fusion, expressed in E. coli; 2 per XL dimer), stated; label: 32P 5'-end
[5] = molecular target: T2, Raf-1 RBD (GST-RBD); assay: EMSA; binding to 2 GST-RBD lower than XL; settings: tags: GST fusion, expressed in E. coli; 2 per XL dimer), stated; label: 32P 5'-end
Experimental: (§2) The product (XL) obtained by crosslinking reaction an equal concentration (0.1 µM) mixture of 9A(5Iy87) and Raf-1 RBD was purified from a gel and analyzed for binding between XL and GSTRBD by gel shift assay. As a control of RNA 9A dimer, RNA 9A molecules were also linked in tandem to newly prepare RNA 9A×2 (200 nucleotides in total length), followed by gel shift assay. RNA 9A×2 is an RNA molecule of 200 nucleotides in total length that has two essential regions of RNA 9A (residues 1-80) in its molecule. It was prepared by transcription reaction using T7 RNA polymerase (Epicentre) and subcloned into vector pCR®II-TOPO (Invitrogen).
(§3) Electrophoresis was performed at room temperature and at a constant voltage (150 V) for about 2 hours (gel size: 16 cm×16 cm×1 mm). The composition of electrophoresis buffer is as follows: 12.5 mM Tris and 125 mM Glycine. Each electrophoresed gel was dried using a gel dryer and analyzed with a bioimaging analyzer (BAS2500, Fuji Photo Film Co., Ltd., Japan).

[6] = molecular target: B-Raf RBD (GST-RBD) (Homo sapiens, UniProt P15056 P15056:149-226); assay: filter; 2 nM RNA; binds B-Raf RBD but does not inhibit B-Raf RBD/Ras interaction; settings: tags: GST fusion, expressed in E. coli; label: 32P 5'-end; pseudoknot (estimated)
B-Raf RBD (GST-RBD), sequence (P15056 149-226, one chain of several): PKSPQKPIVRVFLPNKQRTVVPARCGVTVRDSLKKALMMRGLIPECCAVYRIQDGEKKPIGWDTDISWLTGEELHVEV
Experimental: The binding efficiency (Binding %) to various concentrations of protein was determined for each RNA aptamer (2 nM) by a filter binding method and plotted in the figure.

[7] = molecular target: T2, Raf-1 RBD (GST-RBD); assay: EMSA; 1 XL binds 2 GST-RBD; higher activity than 9Ax2; settings: tags: GST fusion, expressed in E. coli; 2 per XL dimer), stated; label: 32P 5'-end
Experimental: as §2, §3

T1 sequence (P00573 whole entry): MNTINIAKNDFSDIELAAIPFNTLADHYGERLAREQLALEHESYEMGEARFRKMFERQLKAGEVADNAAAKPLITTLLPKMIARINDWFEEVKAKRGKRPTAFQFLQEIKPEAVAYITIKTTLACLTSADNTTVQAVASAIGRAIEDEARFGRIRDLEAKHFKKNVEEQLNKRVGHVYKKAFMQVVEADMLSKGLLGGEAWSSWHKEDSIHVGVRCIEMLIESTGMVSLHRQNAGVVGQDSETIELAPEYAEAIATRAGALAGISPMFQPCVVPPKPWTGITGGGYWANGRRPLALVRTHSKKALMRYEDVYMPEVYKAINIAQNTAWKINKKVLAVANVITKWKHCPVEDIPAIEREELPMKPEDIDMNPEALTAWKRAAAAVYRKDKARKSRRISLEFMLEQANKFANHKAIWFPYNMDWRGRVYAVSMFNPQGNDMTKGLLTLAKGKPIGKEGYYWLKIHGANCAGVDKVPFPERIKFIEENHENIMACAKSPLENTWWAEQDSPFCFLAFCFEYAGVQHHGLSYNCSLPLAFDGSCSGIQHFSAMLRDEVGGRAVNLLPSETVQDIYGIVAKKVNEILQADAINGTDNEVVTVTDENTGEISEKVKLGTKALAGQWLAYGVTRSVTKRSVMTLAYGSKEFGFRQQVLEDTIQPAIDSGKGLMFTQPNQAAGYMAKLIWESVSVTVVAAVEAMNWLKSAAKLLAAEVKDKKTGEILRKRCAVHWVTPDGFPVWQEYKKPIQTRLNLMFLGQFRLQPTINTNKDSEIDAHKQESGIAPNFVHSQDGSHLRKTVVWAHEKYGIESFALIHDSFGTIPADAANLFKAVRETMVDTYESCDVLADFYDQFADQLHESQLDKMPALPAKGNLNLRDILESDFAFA

## O=c1[nH]cc(I)cc1[C@@H]1O[C@H](COP(=O)(O)OP(=O)(O)OP(=O)(O)O)[C@@H](O)[C@H]1O [5IyTP, 3-(β-D-ribofuranosyl)-5-iodopyridin-2(1H)-one 5′-triphosphate]
[1]
  misincorporated 5Iy, share of the total: less than 0.5%
[1]; s-containing template
  selectivity of incorporation opposite s in the template: ≥ 97%
[2]
  progress of transcription reaction with the unnatural triphosphate: proceeded efficiently

## Biotinylated 5-(3-amino-1-propynyl)-3-(β-D-ribofuranosyl)-2-pyridone 5′-triphosphate [Bio^2-yTP]
[3]
  incorporation into RNA opposite s in the template: competitively and selectively incorporated opposite s in the template
  efficiency of transcription reaction: about 50%
  misincorporation opposite natural nucleotides in the template: no misincorporation

## Biotinylated 5-(3-amino-1-propenyl)-3-(β-D -ribofuranosyl)-2-pyridone 5′-triphosphate [Bio-yTP]
[3]
  incorporation into RNA opposite s in the template: competitively and selectively incorporated opposite s in the template
  efficiency of transcription reaction: about 50%
  misincorporation opposite natural nucleotides in the template: almost no misincorporation

## O=c1[nH]cc(C#Cc2ccccc2)cc1[C@@H]1O[C@H](COP(=O)(O)OP(=O)(O)OP(=O)(O)O)[C@@H](O)[C@H]1O [3-(β-D-ribofuranosyl)-5-(2-phenylethynyl)-pyridin-2(1H)-one 5′-triphosphate]
[2]
  progress of transcription reaction with the unnatural triphosphate: confirmed to proceed

B1: RNA OC (ssRNA)
RNA: GGGAGUGGAGGAAUUCAUCGAGGCAUCUGGGAACCCUAUCUUGCUUUUGGUAGCUGUAUUCACCUGUAACAGCAUAUGCCUUAGCGACAGCAAGCUUCUGC
[4]
  binding result: no binding

B2: RNA 9Ax2 (tandem 9A, 200 nt) (ssRNA)
RNA: GGGAGUGGAGGAAUUCAUCGAGGCAUAUGUCGACUCCGUCUUCCUUCAAACCAGUUAUAAAUUGGUUUUAGCAUAUGCCUUAGCGACAGCAAGCUUCUGCGGGAGUGGAGGAAUUCAUCGAGGCAUAUGUCGACUCCGUCUUCCUUCAAACCAGUUAUAAAUUGGUUUUAGCAUAUGCCUUAGCGACAGCAAGCUUCUGC
[5]
  binding result: binds

B3: RNA 9A (ssRNA)
RNA: GGGAGUGGAGGAAUUCAUCGAGGCAUAUGUCGACUCCGUCUUCCUUCAAACCAGUUAUAAAUUGGUUUUAGCAUAUGCCUUAGCGACAGCAAGCUUCUGC
[6]
  binding result: binds

B4: RNA XL (UV-crosslinked dimer of 9A(5Iy87)) (ssRNA)
RNA 1: GGGAGUGGAGGAAUUCAUCGAGGCAUAUGUCGACUCCGUCUUCCUUCAAACCAGUUAUAAAUUGGUUUUAGCAUAUGCCUUAGCGACAGCAAGCUUCUGC
RNA 2: GGGAGUGGAGGAAUUCAUCGAGGCAUAUGUCGACUCCGUCUUCCUUCAAACCAGUUAUAAAUUGGUUUUAGCAUAUGCCUUAGCGACAGCAAGCUUCUGC
modifications: 5Iy at position 87, UV-crosslinked dimer
[7]
  binding result: binds

Source: patent US7745417B2, “Nucleosides or nucleotides having novel unnatural bases and use thereof” (RIKEN, priority 2002, dated 2010)
